Reference: patent US12187713B2, “Immunomodulators, compositions and methods thereof” (Betta Pharmaceuticals Co., Ltd, priority 2019, dated 2025)

Molecular target: PD-1/PD-L1 (Homo sapiens (Human), UniProt Q9NZQ7)
Test: PD-1/PD-L1 Binding Assay (Alphascreen)
Outline: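 PD-1/PD-L1 binding detected by anti-6×His acceptor and streptavidin donor beads after 120 min in the dark at 25 °C. Beforehand, the two proteins were incubated 15 min at 25 °C with inhibitor at 0.015–300 nM (1% DMSO). IC50 comes from a log concentration–response curve.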

Sequence of PD-1/PD-L1 (Q9NZQ7 19-238): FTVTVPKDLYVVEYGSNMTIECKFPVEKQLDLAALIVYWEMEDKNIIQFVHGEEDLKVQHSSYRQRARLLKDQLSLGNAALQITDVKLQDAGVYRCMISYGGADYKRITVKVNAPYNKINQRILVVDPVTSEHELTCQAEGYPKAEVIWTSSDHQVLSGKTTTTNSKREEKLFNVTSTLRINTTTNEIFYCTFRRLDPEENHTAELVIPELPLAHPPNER

Cc1cc(-c2cccc(-c3cccc(-c4nc5cc(CN6CCC[C@H]6C(=O)O)c(OC(F)F)cc5o4)c3C)c2C)ccc1CN1CCCC1 [Example 230, ((6-(difluoromethoxy)-2-(2,2′,3″-trimethyl-4″- (pyrrolidin-1-ylmethyl)-[1,1′:3′,1″-terphenyl]-3-yl)benzo[d]oxazol-5-yl)methyl)-L-proline]
IC50 (numeric values): 1.5 nM

Cc1c(-c2nc3c(o2)CCN(Cc2cccnc2)C3)cccc1-c1cccc(-c2nc3cc(CN4CCC[C@H]4C(=O)O)c(OC(F)F)cc3o2)c1C [Example 194, ((6-(difluoromethoxy)-2-(2,2′-dimethyl-3′-(5-(pyridin-3-ylmethyl)-4,5,6,7-tetrahydrooxazolo[4,5-c]pyridin-2-yl)-[1,1′-biphenyl]-3-yl)benzo[d]oxazol-5-yl)methyl)proline]
IC50 (range symbols): 5 to 50 nM

Cc1c(-c2nc3cc(CN(C)CCN(C)C)c(OC(F)F)cc3o2)cccc1-c1cccc(-c2nc3cc(CN4CCC[C@H]4C(=O)O)c(OC(F)F)cc3o2)c1C [Example 59, ((6-(difluoromethoxy)-2-(3′-(6-(difluoromethoxy)-5-(((2-(dimethylamino)ethyl)(methyl)amino)methyl)benzo [d]oxazol-2-yl)-2,2′-dimethyl-[1,1′-biphenyl]-3-yl)benzo[d]oxazol-5-yl)methyl)-L-proline]
IC50 (numeric values): 2.5 nM

CCNCc1cc2nc(-c3cccc(-c4cccc(-c5nc6cc(CN7CCC[C@H]7C(=O)O)c(OC(F)F)cc6o5)c4C)c3C)oc2cc1OCc1cncc(S(C)(=O)=O)c1 [Example 122, ((6-(difluoromethoxy)-2-(3′-(5-((ethylamino)methyl)-6-((5-(methylsulfonyl)pyridin-3-yl)methoxy)benzo[d]oxazol-2-yl)-2,2′-dimethyl-[1,1′-biphenyl]-3-yl)benzo[d]oxazol-5-yl)methyl)-L-proline]
IC50 (range symbols): 0.1 to 5 nM

Cc1c(-c2nc3cc(CN4CCC[C@H]4C(=O)O)c(OC(F)F)cc3o2)cccc1-c1cccc(-c2nc3cc(CN4CC[C@@H](CF)C4)cc(C#N)c3o2)c1C [Example 168, ((2-(3′-(7-cyano-5-(((R)-3-(fluoromethyl)pyrrolidin-1-yl)methyl)benzo[d]oxazol-2-yl)-2,2′-dimethyl-[1,1′-biphenyl]-3-yl)-6-(difluoromethoxy)benzo[d]oxazol-5-yl)methyl)-L-proline]
IC50 (range symbols): 0.1 to 5 nM

Cc1c(-c2ccc(CN3CCC(NC(N)=O)C3)c(F)c2)cccc1-c1cccc(-c2nc3cc(CN4CCC[C@H]4C(=O)O)c(OC(F)F)cc3o2)c1C (stereo partly drawn) [Example 260, ((6-(difluoromethoxy)-2-(3″-fluoro-2,2′-dimethyl-4″-((3-ureidopyrrolidin-1-yl)methyl)-[1,1′:3′,1″-terphenyl]-3-yl)benzo[d]oxazol-5-yl)methyl)-L-proline]
IC50 (range symbols): 5 to 50 nM

Cc1c(-c2nc3cc(CN4CCC[C@H]4C(=O)O)c(OC(F)F)cc3o2)cccc1-c1cccc(NC(=O)c2ccc(CNCCO)cn2)c1Cl [Example 302, ((2-(2′-chloro-3′-(5-(((2-hydroxyethyl)amino)methyl)picolinamido)-2-methyl-[1,1′-biphenyl]-3-yl)-6-(difluoromethoxy)benzo[d]oxazol-5-yl)methyl)-L-proline]
IC50 (numeric values): 0.29 nM

Cc1c(-c2nc3cc(CN4CC(O)C4)c(OC(F)F)cc3o2)cccc1-c1cccc(-c2nc3cc(CN4CCC[C@H]4C(=O)O)c(OC(F)F)cc3o2)c1C [Example 20, ((6-(difluoromethoxy)-2-(3′-(6-(difluoromethoxy)-5-((3-hydroxyazetidin-1-yl)methyl)benzo [d]oxazol-2-yl)-2,2′-dimethyl-[1,1′-biphenyl]-3-yl)benzo[d]oxazol-5-yl)methyl)-L-proline]
IC50 (numeric values): 1.6 nM

Cc1c(-c2nc3cc(CN4CC5CCCC5C4)c(OC(F)F)cc3o2)cccc1-c1cccc(-c2nc3cc(CN4CCC[C@H]4C(=O)O)c(OC(F)F)cc3o2)c1C (stereo partly drawn) [Example 49, ((6-(difluoromethoxy)-2-(3′-(6-(difluoromethoxy)-5-((hexahydrocyclopenta [c]pyrrol-2(1H)-yl)methyl)benzo[d]oxazol-2-yl)-2,2′-dimethyl-[1,1′-biphenyl]-3-yl)benzo[d]oxazol-5-yl)methyl)-L-proline]
IC50 (range symbols): 0.1 to 5 nM
